Inhibition and IC50 data for four compounds are collected here from patent US5075440A, “Novel pyrido[2,3-f](1,4)thiazepines and pyrido[3,2-b](1,5)benzothiazepines” (Ortho Pharmaceutical Corporation, priority 1990, dated 1991).

Experiment [1] deals with trachealis muscle tissue. The experiment can be described thus: Inhibition of calcium dependent smooth muscle contraction, trachea (P#176 Trach). Details: species or system dog. The note with it: Canis lupus familiaris, 50 mM KCl contraction, read-out: P#176 Trach % INHB/μM. The procedure: (§1) The test for inhibition of calcium dependent smooth muscle contraction is determined according to the following procedure:
(§2) The trachea and the aorta from dogs sacrificed by excess KCl injection are stored overnight at 4° C. in oxygenated Krebs-Henseleit buffer. Tracheal rings, one cartilage segment wide (5-10 mm), are cut starting from the bronchial end. Rings of aorta tissue of the same width are also prepared. After cutting the cartilage, the trachealis muscle tissue and the aorta tissue are suspended in oxygenated Krebs-Henseleit buffer at 37° C. in a 25 ml tissue bath. After a 60-minute equilibration period, the tissues are challenged with 10 μM carbachol. After 5 minutes, the tissues are rinsed and allowed to rest 50 minutes. The tissues are then challenged with 50 mM KCl and, after 30 minutes, the contractions are quantitated. The tissues are then rinsed and reequilibrated for 50 minutes. Test compounds are then added for 10 minutes, and the tissue is rechallenged with 50 mM KCl. After 30 minutes, the contraction is recorded and used to determine the % inhibition of control.
(§3) The percent inhibition of smooth muscle contraction is calculated from response data before and after drug treatment. [formula]

The test system of experiment [2] is aorta tissue. The experiment can be described thus: Inhibition of calcium dependent smooth muscle contraction, aorta (P#176 Aorta). Further details: species or system dog. The note with it: Canis lupus familiaris, 50 mM KCl contraction, read-out: P#176 Aorta % INHB/μM. On the procedure: as §1, §2, §3
Experiment [3] has as its target T1, Calcium Channel (3H-nitrendipine binding, heart membranes) (Oryctolagus cuniculus, UniProt P15381).
T1 construct: the heart is immediately removed, cleaned and chopped into small pieces; The tissue is homogenized; from tissue; host or cells: heart membranes of female New Zealand white rabbits (42,000×g pellet)
The experiment can be described thus: Inhibition of 3H-nitrendipine binding (P#166 Nit. Binding). Details: species or system rabbit. The note with it: for IC50: rabbit heart membranes, 3H-nitrendipine 0.05-0.50 nM. On the procedure: The assay for inhibition of nitrendipine binding is performed using the following procedure:
Female, New Zealand white rabbits (1-2 kg) are sacrificed by cervical dislocation, and the heart is immediately removed, cleaned and chopped into small pieces. The tissue is homogenized in 5×volume of 0.05M Hepes buffer, pH 7.4. The homogenate is centrifuged at 4000×g for 10 minutes, and the supernatant is recentrifuged at 42,000×g for 90 minutes. The resulting membrane pellet is resuspended (0.7 ml/g weight) in 0.05M Hepes, pH 7.4 and stored at […] until used. Each tube of the binding assay contains ^3 H-nitrendipine (0.05-0.50 nM), buffer, membranes (0.10 ml), and test compound in a total volume of 1.0 ml. After 90 minutes at 4° C., the bound nitrendipine is separated from the unbound by filtration on Whatman GF/C filters. After rinsing, the filters are dried and counted in a liquid scintillation counter.
Non-specific binding of ^3 H-nitrendipine (that amount bound in the presence of excess unlabelled nitrendipine) is subtracted from the total bound to obtain specifically bound radiolabeled nitrendipine. The amount of specifically bound nitrendipine in the presence of a test compound is compared to that amount bound in the absence of a compound. A percent displacement (or inhibition) can then be obtained.

T1 sequence (P15381 whole entry, other chains not shown): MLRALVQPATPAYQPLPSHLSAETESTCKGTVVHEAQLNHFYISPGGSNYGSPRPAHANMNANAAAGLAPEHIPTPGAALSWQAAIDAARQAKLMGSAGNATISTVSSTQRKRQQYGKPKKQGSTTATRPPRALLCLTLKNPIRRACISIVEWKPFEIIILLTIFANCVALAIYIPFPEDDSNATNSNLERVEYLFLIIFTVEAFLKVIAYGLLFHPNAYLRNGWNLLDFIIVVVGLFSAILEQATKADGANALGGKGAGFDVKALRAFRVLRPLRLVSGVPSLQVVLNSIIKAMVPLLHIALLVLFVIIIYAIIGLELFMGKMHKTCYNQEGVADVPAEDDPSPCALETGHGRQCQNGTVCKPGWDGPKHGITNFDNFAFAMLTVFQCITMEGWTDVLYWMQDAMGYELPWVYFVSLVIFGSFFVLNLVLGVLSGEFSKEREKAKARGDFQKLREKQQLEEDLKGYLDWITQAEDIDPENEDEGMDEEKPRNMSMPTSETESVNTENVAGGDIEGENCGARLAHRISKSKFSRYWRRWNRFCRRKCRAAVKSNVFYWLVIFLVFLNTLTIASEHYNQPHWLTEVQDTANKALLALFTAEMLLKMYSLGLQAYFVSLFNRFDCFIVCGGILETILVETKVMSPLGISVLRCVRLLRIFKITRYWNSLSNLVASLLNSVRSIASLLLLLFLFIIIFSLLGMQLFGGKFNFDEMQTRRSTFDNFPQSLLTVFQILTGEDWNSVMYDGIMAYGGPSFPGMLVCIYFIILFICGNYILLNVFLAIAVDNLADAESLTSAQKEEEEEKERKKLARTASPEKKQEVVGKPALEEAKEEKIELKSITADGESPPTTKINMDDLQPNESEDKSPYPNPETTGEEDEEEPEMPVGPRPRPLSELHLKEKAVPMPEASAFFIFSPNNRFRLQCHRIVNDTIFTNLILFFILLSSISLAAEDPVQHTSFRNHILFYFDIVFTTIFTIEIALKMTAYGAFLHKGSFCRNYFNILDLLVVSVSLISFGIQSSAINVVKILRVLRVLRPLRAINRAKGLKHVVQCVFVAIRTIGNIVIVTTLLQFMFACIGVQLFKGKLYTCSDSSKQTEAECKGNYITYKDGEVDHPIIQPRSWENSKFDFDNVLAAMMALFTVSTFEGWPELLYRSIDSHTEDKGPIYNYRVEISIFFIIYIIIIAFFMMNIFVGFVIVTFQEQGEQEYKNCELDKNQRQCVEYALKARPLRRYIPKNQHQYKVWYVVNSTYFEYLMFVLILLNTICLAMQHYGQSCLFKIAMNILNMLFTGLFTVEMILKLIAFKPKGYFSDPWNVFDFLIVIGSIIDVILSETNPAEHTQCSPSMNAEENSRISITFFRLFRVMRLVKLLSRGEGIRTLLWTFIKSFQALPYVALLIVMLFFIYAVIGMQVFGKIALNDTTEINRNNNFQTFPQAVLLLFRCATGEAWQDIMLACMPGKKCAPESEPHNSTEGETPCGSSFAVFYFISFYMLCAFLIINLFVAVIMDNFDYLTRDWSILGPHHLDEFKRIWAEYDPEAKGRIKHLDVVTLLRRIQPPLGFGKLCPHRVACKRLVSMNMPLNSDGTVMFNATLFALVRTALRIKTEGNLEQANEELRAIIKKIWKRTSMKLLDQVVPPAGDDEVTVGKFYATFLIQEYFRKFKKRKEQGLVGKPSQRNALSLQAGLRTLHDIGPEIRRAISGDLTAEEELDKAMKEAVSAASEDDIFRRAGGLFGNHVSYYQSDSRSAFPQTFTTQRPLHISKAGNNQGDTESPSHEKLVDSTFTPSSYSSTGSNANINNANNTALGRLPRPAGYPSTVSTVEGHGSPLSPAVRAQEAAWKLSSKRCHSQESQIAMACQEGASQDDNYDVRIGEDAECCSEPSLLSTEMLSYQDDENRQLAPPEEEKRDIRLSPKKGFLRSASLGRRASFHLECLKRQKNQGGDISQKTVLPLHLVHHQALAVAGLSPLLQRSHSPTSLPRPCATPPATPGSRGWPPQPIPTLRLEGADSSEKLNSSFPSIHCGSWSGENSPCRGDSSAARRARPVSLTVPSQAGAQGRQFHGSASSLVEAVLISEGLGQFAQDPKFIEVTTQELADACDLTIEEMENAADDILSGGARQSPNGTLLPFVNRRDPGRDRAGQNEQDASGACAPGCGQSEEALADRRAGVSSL
T1 sequence (P13806 27-960 partner limits assumed, other chains not shown): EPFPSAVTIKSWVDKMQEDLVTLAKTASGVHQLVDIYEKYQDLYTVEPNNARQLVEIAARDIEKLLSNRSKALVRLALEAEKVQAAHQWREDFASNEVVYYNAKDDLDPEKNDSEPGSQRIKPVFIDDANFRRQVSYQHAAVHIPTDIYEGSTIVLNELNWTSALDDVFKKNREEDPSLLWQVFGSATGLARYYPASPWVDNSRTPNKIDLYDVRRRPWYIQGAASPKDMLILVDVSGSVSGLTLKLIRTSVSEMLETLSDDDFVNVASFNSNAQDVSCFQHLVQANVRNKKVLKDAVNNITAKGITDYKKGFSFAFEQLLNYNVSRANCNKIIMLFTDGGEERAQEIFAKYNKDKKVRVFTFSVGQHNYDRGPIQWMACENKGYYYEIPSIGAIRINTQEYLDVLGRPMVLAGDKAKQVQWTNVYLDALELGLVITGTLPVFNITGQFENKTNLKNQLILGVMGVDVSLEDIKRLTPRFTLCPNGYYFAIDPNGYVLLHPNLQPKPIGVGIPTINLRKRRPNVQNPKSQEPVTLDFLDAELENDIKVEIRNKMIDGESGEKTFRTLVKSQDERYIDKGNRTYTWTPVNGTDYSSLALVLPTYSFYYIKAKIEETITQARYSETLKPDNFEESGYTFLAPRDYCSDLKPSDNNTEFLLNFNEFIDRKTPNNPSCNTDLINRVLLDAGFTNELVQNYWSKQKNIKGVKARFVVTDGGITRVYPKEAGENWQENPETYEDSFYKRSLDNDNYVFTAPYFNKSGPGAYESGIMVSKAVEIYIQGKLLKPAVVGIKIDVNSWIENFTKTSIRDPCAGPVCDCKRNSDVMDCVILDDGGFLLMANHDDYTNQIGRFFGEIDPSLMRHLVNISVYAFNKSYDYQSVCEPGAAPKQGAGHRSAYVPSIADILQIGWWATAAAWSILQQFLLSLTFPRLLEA
T1 sequence (P13806 961-1106 partner limits assumed, other chains not shown): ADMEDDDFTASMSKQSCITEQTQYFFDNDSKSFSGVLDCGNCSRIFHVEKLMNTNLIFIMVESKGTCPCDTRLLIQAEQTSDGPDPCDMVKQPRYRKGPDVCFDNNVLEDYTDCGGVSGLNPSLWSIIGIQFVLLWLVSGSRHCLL

The IC50 is the concentration that gives 50% inhibition. For the compound `CCOC(=O)C1=C(C)NC2=C(C1c1cccc([N+](=O)[O-])c1)S(=O)(=O)CCNC2` (stereo not shown) [3-nitro / H / ethyl], the inhibition at 0.03 µM in experiment [1] (0.03 μM) is 58%. Besides, in experiment [1], the inhibition at 2 µM is 93%. Also, in experiment [2], the inhibition at 0.1 µM was determined as 88% and the inhibition at 1 µM came out at 100%. In experiment [3], the IC50 came out at 240 nM.

Turning to `CCOC(=O)C1=C(C)NC2=C(C1c1c(F)c(F)c(F)c(F)c1F)S(=O)(=O)CCN(C(=O)OC(C)(C)C)C2` (stereo not shown) [pentafluoro / BOC / ethyl], the inhibition at 2 µM in experiment [1] was 7%. Moreover, in experiment [2], the inhibition at 0.1 µM was determined as 0% and the inhibition at 1 µM worked out at 37%. In addition, the inhibition at 1 µM in experiment [3] (@ 1.0 μM test compound) amounted to 24%.

On to `CCOC(=O)C1=C(C)NC2=C(C1c1c(F)c(F)c(F)c(F)c1F)S(=O)(=O)CCNC2` (stereo not shown) [pentafluoro / H / ethyl, Ethyl 1,1-dioxo-2,3,4,5,6,9-hexahydro-7-methyl-9-(2,3,4,5,6-pentafluorophenyl)-pyrido[2,3-f][1,4]-thiazepine-8-carboxylate], for which, in experiment [1], the inhibition at 0.01 µM was 13%, the inhibition at 0.1 µM is 63% and the inhibition at 2 µM turned out to be 98%. Also, in experiment [2], the inhibition at 0.01 µM was determined as 61%, the inhibition at 0.1 µM was 89% and the inhibition at 1 µM amounted to 95%. The IC50 in experiment [3] is 90 nM.

`CCOC(=O)C1=C(C)NC2=C(C1c1c(F)c(F)c(F)c(F)c1F)S(=O)(=O)CCN(C)C2` (stereo not shown) [pentafluoro / Me / ethyl, Ethyl 4,7-dimethyl-1,1-dioxo-2,3,4,5,6,9-hexahydro-9-(2,3,4,5,6-pentafluorophenyl)-pyrido[2,3-f][1,4]-thiazepine-8-carboxylate]: the inhibition at 0.01 µM stood at 35% in experiment [1] and 50% in experiment [2]. For the same compound, the inhibition at 0.1 µM in experiment [1] came to 73%. The inhibition at 1 µM in experiment [1] (1.0 μM) was found to be 95%; in experiment [2], 97%. The IC50 in experiment [3] was 53 nM.
